Source: US12403121B2, “Anticancer rocaglamide derivatives” (priority 2018, dated 2025)

Legend:
[1] = Kinghorn et al. 2016 and NCI Developmental Therapeutics Program study, same conditions; cited from earlier work
[2] = test system: panel of MPNST, schwannoma, and meningioma cell lines; assay: Side-by-side growth inhibition comparison with silvestrol in a cell line panel; format: cell-based; details: panel of MPNST, schwannoma, meningioma cell lines
Description: (§1) Actively-growing cells were seeded in 96-well plates (Sarstedt) at 2,000 cells/well for Ben-Men-1 and RD cells, 30,000 cells/well for 697 and 697-R cells, and 4,000 cells/well for all other cell lines. The following day, cells were treated with various concentrations of each compound or and 0.05% of DMSO as the control for six days for MG-63 cells or three days for all remaining cell lines. Cell proliferation was assessed using resazurin assays and the IC50 value calculated. Cell cycle analysis was performed accordingly. Burns et al., Cancer Res., 73:792-803 (2013).
To search for compounds with better drug-like properties, the inventors conducted a side-by-side comparison of ten rocaglates lacking the dioxanyl ring with silvestrol for growth-inhibitory activity in a panel of MPNST, schwannoma, and meningioma cell lines, which they had previously shown to be sensitive to the antiproliferative action of silvestrol. […] The average IC50 value of each rocaglate was determined by 3-day resazurin proliferation assays. […] Further structure and activity comparison discerned some positions on the cyclopenta[b]benzofuran scaffold that affected the antiproliferative activity of rocaglates.

[3] = Maximum tolerated dose of Roc in mice; format: in vivo; details: every other day
[4] = test system: ST8814-Luc MPNST xenografts; assay: Orthotopic ST8814-Luc MPNST cell line-derived xenograft, bioluminescence imaging and IHC; format: in vivo, NSG mice; details: 4 weeks
Description: All animal work was performed according to the protocols approved by the Institutional Animal Care and Use Committee at Nationwide Children's Hospital. For animal dosing, Roc was formulated in 30% hydroxypropyl-β-cyclodextrin (HPβCD; CTD, Inc.). To generate the orthotopic MPNST CDX model, ST8814-Luc cells were injected into the sciatic nerves of NSG mice (NOD.Cg-Prkdc^scid Il2rg^imlWjl/SzJ; The Jackson Laboratory), followed by bioluminescence imaging (BLI) to monitor tumor growth. Burns and Chang, Methods Mol Biol., 1427:59-72 (2016). Mice bearing established ST8814-Luc tumors, as defined by increasing bioluminescence signals over at least two time points, were randomized into three groups (n=10 mice) and treated with the predetermined maximum tolerated dose (MTD) of Roc at 4 mg/kg by IP or 1.2 mg/kg by oral gavage, or the vehicle HPβCD every other day. Tumor growth was measured weekly by BLI. Following 4 weeks of treatment, tumors were harvested for histological analysis.
Sections from Roc or vehicle-treated MPNST tumors were prepared and stained with hematoxylin and eosin (H&E) or immunostained for p-histone H3(Ser^10) (pH3; ab32107, Abeam) or CC3 (#9664, Cell Signaling) as previously described. Burns et al., Cancer Res., 73:792-803 (2013).
To evaluate the in vivo activity of Roc, the inventors treated NSG mice bearing luciferase-expressing ST8814-Luc tumors implanted in the sciatic nerve with Roc at the predetermined MTD (4 mg/kg by IP or 1.2 mg/kg oral gavage), or IPβCD as the vehicle control every other day.

[5] = test system: STS26T and ST8814 MPNST cells; assay: Flow cytometry cell cycle analysis; format: cell-based, human; details: one- or two-IC50 doses, three days
Description: as §1

osteosarcoma PDX = assay: Osteosarcoma PDX model (NCH-OS-7); format: in vivo, NSG mouse; details: 3 mg/kg IP every other day
Text: (§2) To generate PDX models, the Nationwide Children's Hospital Institutional Review Board approved the Human Subjects Protocol for the acquisition of surgically-removed tumor specimens from patients and informed patient consents were obtained. Shortly after resection, fresh tumor tissues with their histological types confirmed by a specialized pathologist were placed in Dulbecco's-modified Eagle (DME) medium (Invitrogen) and brought to the research laboratory. A piece of tumor fragment was implanted subcutaneously on the dorsal right flank area in an eight-to-ten week-old immunodeficient mouse under anesthesia. Tumors were allowed to grow until established, at which time the established PDX tumors were repeatedly passed from one animal to the next or cryopreserved. For Roc treatment, actively-growing PDXs for a Ewing sarcoma (NCH-EWS-2), an osteosarcoma (NCH—OS-7), and an alveolar rhabdomyosarcoma (NCH-ARMS-2) were excised and cut into 5-mm pieces. Each tumor piece was re-implanted into an NSG mouse and tumor growth was monitored. Once noted, the tumor sizes in the axial plane at its greatest dimension (L) and the orthogonal short dimension (S) were measured twice weekly using a Fowler Ultra-Cal Electronic Caliper. Approximated tumor volumes were calculated using the formula V=(L×S^2)/2. […]

rhabdomyosarcoma PDX = assay: Alveolar rhabdomyosarcoma PDX model (NCH-ARMS-2); format: in vivo, NSG mouse; details: 3 mg/kg IP every other day
Text: as §2

COc1ccc([C@@]23Oc4cc(OC)cc(OC)c4[C@]2(O)[C@H](O)[C@H](C(=O)N(C)C)[C@H]3c2ccccc2)cc1 [Roc, rocaglamide]
pulmonary toxicity in dogs [1]: did not induce the toxicity | IC50 values relative to silvestrol [2]: slightly higher than silvestrol | maximum tolerated dose (MTD) ([3]; IP): 4 mg/kg | maximum tolerated dose (MTD) ([3]; oral gavage): 1.2 mg/kg | increase of tumor bioluminescence over four weeks ([4]; 1.2 mg/kg PO (oral gavage) every other day, vehicle ~17,000-fold): ~470 fold | reduction in tumor bioluminescence compared to controls ([4]; 1.2 mg/kg oral gavage every other day): > 95% | reduction in tumor luminescence compared to controls ([4]; 4 mg/kg IP every other day): > 99% | phospho-histone H3 labeling in tumors vs vehicle ([4]; IP- or orally-delivered, IHC): much higher prevalence | cleaved caspase-3 positive cells in tumors ([4]; Roc-treated tumors, IHC): increased numbers | G2/M fraction [5]: marked increase in the GVM fraction | reduction of average tumor size compared to vehicle (osteosarcoma PDX): ~80% | reduction of tumor growth (rhabdomyosarcoma PDX): ~70%
